Legend:
[1] = system: acute hippocampal slices; experiment: [3H]Glutamate and endogenous glutamate release from acute hippocampal slices; type: cell-based, mouse; settings: P2rx7−/− slices, ATP 10 mM, antagonist 100 nM 15 min before ATP
Experimental: The [^3H]Glu release experiments were conducted using the method described in our previous papers. Briefly, the mice were anaesthetized under light CO2 inhalation, and subsequently decapitated. The hippocampus was dissected from each mouse in ice-cold Krebs solution saturated with 95% O2 and 5% CO2, sectioned (400-µm-thick slices) using a McIlwain tissue chopper and incubated in 1 ml of modified Krebs solution (113 mM NaCl, 4.7 mM KCl, 2.5 mM CaCl2, 1.2 mM KH2PO4, 1.2 mM MgSO4, 25.0 mM NaHCO3, and 11.5 mM glucose), pH 7.4, in the presence of 5 µCi/ml [^3H]glutamic acid ([^3H]Glu, 9.8×10^−8 M, specific activity 51 Ci/mmol; Perkin Elmer) for 45 min. The medium was bubbled with 95% O2 and 5% CO2 and maintained at 32°C. After loading, the slices were continuously superfused with 95% O2 and 5% CO2-saturated modified Krebs solution (flow rate: 0.7 ml/min).
Subsequently, the perfused samples were collected over a 3-min period and measured for tritium content. At 6 min after the start of the collection, the slices were subjected to a 6-min perfusion of the agonist (ATP) at various concentrations (1, 3, 6 and 10 mM) and then changed to normal Krebs solution until the end of the collection period. In some experiments, the P2X1 receptor antagonist, NF449 (100 nM), or the selective P2rx7 antagonist Brilliant blue G (100 nM) was applied to the perfusion solution at 15 min before the beginning of the ATP perfusion.
The radioactivity released from the preparations was measured using a Packard 1900 Tricarb liquid scintillation spectrometer, using Ultima Gold Scintillation cocktail. The release of tritium was expressed as a percentage of the amount of radioactivity in the tissue at the sample collection time (fractional release). The tritium uptake in the tissue was determined as the sum of release+the tissue content after the experiment and expressed in Bq/g. For the evaluation of the basal tritium outflow the fractional release measured in four consecutive 3 min samples under drug free conditions were taken into account. The ATP-induced [^3H]Glu efflux calculated as the net release in response to the respective stimulus by subtracting the release before the stimulation from the values measured after stimulation. Selected samples collected under resting conditions and during the peak of the ATP-evoked response were subjected to further HPLC analyses.
The separation of pre-column dansylated amino acids was performed using a gradient elution-working mode at ambient temperature. The mobile phase A consisted of 5/95 (v/v) 78/22 acetonitrile/methanol in 15 mM ammonium formate buffer, and the mobile phase B was composed of 90/10 (v/v 78/22) acetonitrile/methanol in ammonium formate buffer, pH 3.7. The mobile phase B increased linearly (at 0.11 min to 50% 17 min to 72% and 26 min to 100%, followed by a final run to 54 min), the flow rate was 0.7 ml/min. The analytical and the trap column were equilibrated for 10 min, and enrichment and clean-up procedures were performed. The dansylated derivatives were detected using an absorbance detector (Agilent 1100) at a 319 nm wavelength. The retention time of the dansylated Glu was 11.4 min. Pre-column derivatization was performed by mixing 50 µl of dansyl chloride prepared by dissolving 5 mg 5-(dimethylamino)naphthalene-1-sulfonyl chloride in acetonitrile daily and adding 50 µl of 2 M sodium carbonate, which contained norvaline (20 µM) as an internal standard in 25 µl of sample. After a 10-min reaction time at 60°C, the mixture was acidified using 25 µl of 6 M formic acid and injected onto the “trap-column”.

[2] = system: BDNF level in hippocampal slices; experiment: BDNF protein assay (ELISA), in vitro study in hippocampal slices; type: cell-based, mouse; settings: BBG 100 nM
Experimental: The P2rx7 wild type and knockout mice were anesthetized under light CO2 inhalation and decapitated. The hippocampus was dissected in ice-cold Krebs solution saturated with 95% O2 and 5% CO2, sectioned (400 µm thick slices) using a McIlwain tissue chopper and incubated in 2 ml of modified Krebs solution in the presence of 1 ml Hibernate medium, ascorbic acid (300 µM) and Na2EDTA (30 µM) for 60 min. The medium was bubbled continuously with 95% O2 and 5% CO2 and maintained at 37°C. The P2rx7 agonist, BzATP, was added to the incubation solution for 30 min, whereas BBG was applied 15 min before BzATP application. RO-256981, 6-cyano-7-nitroquinoxaline-2,3-dione (CNQX) and 3-Chloro-4-fluoro-N-[4[[2(phenylcarbonyl)hydrazino]carbonyl]benzyl] benzenesulfonamide (TCN-201) were applied for 15 min, while MCPG was administered for 30 min. The group I metabotropic glutamate receptor agonist, dihydroxyphenylglycine (DHPG), was administered for 10 min. The DHPG, MCPG, and RO-256981 dosages were chosen based on previous studies, [47], [48]. In the experiments with BzATP, Mg^2+ was omitted from the incubation solution. The hippocampal slices were collected, frozen on dry ice and stored at −70°C until further investigation. Each experimental group contained 3–4 mice.
At the time of analysis, the samples were removed from the freezer and weighed. The BDNF extraction procedure was performed in accordance with the methods of a previous study. For the BDNF assays, 2 ml lysis buffer (100 mM PIPES, pH 7, 500 mM NaCl, 0.2% Triton X-100, 0.1% NaN3, 2% BSA, 2 mM EDTA, 200 µM PMSF, 10 µg/mL aprotinin, 1 µg/mL leupeptin, and 0.5 mM sodium vanadate) was added to each sample, and the hippocampus was sonicated at power level 2 using pulses at 1 sec intervals for 10–15 sec. Subsequently, the samples were centrifuged at 16,000 × g for 30 min at 4°C. 100 µl aliquots of the resulting supernatants were removed and diluted with 400 µl of DPBS buffer (137 mM NaCl, 2.68 mM KCl, 1.47 mM KH2PO4, 8.1 mM Na2HPO4 (pH 7.35), 0.9 mM CaCl2·H2O, and 0.5 mM MgCl2·H2O). The supernatants were collected and stored at −70?C until further analysis. For the total free BDNF measurement, the samples were acid treated with 1 µl of 1 N HCl for each 50 µl of diluted samples to decrease the pH to 2.5, followed by incubation at room temperature for 15 min. The samples were neutralized with 1 µl of 1 N NaOH for each 50 µl of diluted samples. The levels of BDNF (both precursor and mature forms) expression were evaluated using an enzyme-linked immunosorbent assay (ELISA) kit and a BDNF Emax ImmunoAssay System (Promega Corporation, Madison, WI, USA), which is specific for mouse BDNF protein, according to the manufacturer’s instructions. The BDNF levels were calculated by plotting the optical density (OD) of each sample against the standard curve. A seven-point standard curve using two-fold serial dilutions in Reagent Diluent (according the manufacturer’s instructions) and a high standard of 500 pg/ml were used for the determination of BDNF levels. The assay detection limits were <15 pg/ml. Absorbance was measured at 450 nm using a Perkin-Elmer Victor 3V 1420 Multilabel Counter.

## CCOc1ccc(Nc2ccc(/C(=C3C=C/C(=[N+](/CC)Cc4cccc(S(=O)(=O)[O-])c4)C=C/3C)c3ccc(N(CC)Cc4cccc(S(=O)(=O)O)c4)cc3C)cc2)cc1 [BBG, Brilliant blue G]
[1]
  residual ATP-evoked [3H]Glu efflux in presence of antagonist: 0.56±0.25%
[2]; P2rx7+/+ slices, + BzATP 100 µM, Mg2+-free, RO-256981 3 µM, MCPG 200 µM, DHPG 100 µM
  BDNF level in hippocampal slices in the presence of BzATP: 77.87 ± 4.24 pg/mL
[2]; P2rx7+/+ slices
  BDNF level in hippocampal slices: 118.22 ± 1.59 pg/mL
  increase of basal BDNF level: 656%
[2]; P2rx7−/− slices
  BDNF level in hippocampal slices: 60.31 ± 0.31 pg/mL
  increase of basal BDNF level: 272.7%

— paper PMC3689833, “Neurochemical Changes in the Mouse Hippocampus Underlying the Antidepressant Effect of Genetic Deletion of P2X7 Receptors” (PLoS ONE, 2013)
